Measured values published in patent US9302999B2, “Substituted triazoles as herbicides” (E. I. DU PONT DE NEMOURS AND COMPANY, priority 2012, dated 2016).

What was measured:
Format in all cases: in vivo
soybean (Glycine max) = experiment: Test E pre-/postemergence: soybean; conditions: scale 0 to 100
From the text: (§1) Seeds of plant species selected from corn (Zea mays), soybean (Glycine max), velvetleaf (Abutilon theophrasti), lambsquarters (Chenopodium album), poinsettia, wild (wild poinsettia, Euphorbia heterophylla), pigweed, palmer (palmer pigweed, Amaranthus palmeri), waterhemp (common waterhemp, Amaranthus rudis), smartweed (ladysthumb smartweed, Polygonum persicaria), surinam grass (Brachiaria decumbens), crabgrass, large (large crabgrass, Digitaria sanguinalis), crabgrass, Brazil (Brazilian crabgrass, Digitaria horizontalis), panicum, fall (fall panicum, Panicum dichotomiflorum), foxtail, giant (giant foxtail, Setaria faberii), foxtail, green (green foxtail, Setaria viridis), goosegrass (Eleusine indica), johnsongrass (Sorghum halepense), ragweed (common ragweed, Ambrosia elation), barnyardgrass (Echinochloa crus-galli), sandbur (southern sandbur, Cenchrus echinatus), arrowleaf sida (Sida rhombifolia), ryegrass, Italian (Italian ryegrass, Lolium multiflorum), dayflower, (VA) (Virginia dayflower, Commelina virginica), field bindweed (Convolvulus arvensis), cocklebur (common cocklebur, Xanthium strumarium), morningglory (Ipomoea coccinea), nightshade (eastern black nightshade, Solanum ptycanthum), kochia (Kochia scoparia), nutsedge, yellow (yellow nutsedge, Cyperus esculentus) and beggarticks (hairy beggarticks, Bidens pilosa) were planted into a silt loam soil and treated preemergence with test chemicals formulated in a non-phytotoxic solvent mixture which included a surfactant. At the same time, plants selected from these crop and weed species were planted in pots containing a growing medium comprising spaghnum peat moss, vermiculite, wetting agent and starter nutrients and treated with postemergence applications of some of the test chemicals formulated in the same manner. Plants ranged in height from 2 to 18 cm for postemergence treatments (1- to 4-leaf stage).
(§2) Treated plants and controls were maintained in a greenhouse for 14 to 21 days, after which time all species were compared to controls and visually evaluated. Plant response ratings, summarized in Table E, are based on a scale of 0 to 100 where 0 is no effect and 100 is complete control. A dash (-) response means no test result.

[1] = system: pigweed, palmer (palmer pigweed, Amaranthus palmeri); experiment: Test E pre-/postemergence: pigweed, palmer; conditions: scale 0 to 100
From the text: as §1, §2

[2] = system: barnyardgrass (Echinochloa crus-galli); experiment: Test E pre-/postemergence: barnyardgrass; conditions: scale 0 to 100
From the text: as §1, §2

kochia (Kochia scoparia) = experiment: Test E pre-/postemergence: kochia; conditions: Preemergence, scale 0 to 100
From the text: as §1, §2

[3] = system: lambsquarters (Chenopodium album); experiment: Test E pre-/postemergence: lambsquarters; conditions: Preemergence, scale 0 to 100
From the text: as §1, §2

Row | Compound | Plant response rating: Soybean (soybean (Glycine max); Preemergence, 16 g ai/ha) | Plant response rating: Soybean (soybean (Glycine max); Preemergence, 31 g ai/ha) | Plant response rating: Soybean (soybean (Glycine max); Preemergence, 62 g ai/ha) | Plant response rating: Soybean (soybean (Glycine max); Preemergence, 125 g ai/ha) | Plant response rating: Pigweed, Palmer ([1]; Preemergence, 16 g ai/ha) | Plant response rating: Pigweed, Palmer ([1]; Preemergence, 31 g ai/ha) | Plant response rating: Pigweed, Palmer ([1]; Preemergence, 62 g ai/ha) | Plant response rating: Pigweed, Palmer ([1]; Preemergence, 125 g ai/ha) | Plant response rating: Barnyardgrass ([2]; Preemergence, 16 g ai/ha) | Plant response rating: Barnyardgrass ([2]; Preemergence, 31 g ai/ha) | Plant response rating: Barnyardgrass ([2]; Preemergence, 62 g ai/ha) | Plant response rating: Barnyardgrass ([2]; Preemergence, 125 g ai/ha) | Plant response rating: Kochia (kochia (Kochia scoparia); 16 g ai/ha) | Plant response rating: Kochia (kochia (Kochia scoparia); 31 g ai/ha) | Plant response rating: Kochia (kochia (Kochia scoparia); 62 g ai/ha) | Plant response rating: Kochia (kochia (Kochia scoparia); 125 g ai/ha) | Plant response rating: Lambsquarters ([3]; 16 g ai/ha) | Plant response rating: Lambsquarters ([3]; 31 g ai/ha) | Plant response rating: Lambsquarters ([3]; 62 g ai/ha) | Plant response rating: Lambsquarters ([3]; 125 g ai/ha) | other results
1 | Cc1nn(-c2ccc(F)cc2)nc1Cc1ccnc(C(F)(F)F)c1 [Compound 16, 4-[[2-(4-fluorophenyl)-5-methyl-2H-1,2,3-triazol-4-yl]methyl]-2-(trifluoromethyl)pyridine] | 0 | 0 | 0 | 20 | 98 | 98 | 98 | 100 | 10 | 50 | 98 | 98 | 20 | 70 | 100 | 100 | 0 | 75 | 98 | 98 | Plant response rating: Soybean (soybean (Glycine max); Preemergence, 8 g ai/ha): 0; Plant response rating: Pigweed, Palmer ([1]; Preemergence, 8 g ai/ha): 95; Plant response rating: Barnyardgrass ([2]; Preemergence, 8 g ai/ha): 0; Plant response rating: Kochia (kochia (Kochia scoparia); 8 g ai/ha): 0; Plant response rating: Lambsquarters ([3]; 8 g ai/ha): 0
2 | Cc1nn(-c2ccc(C(F)(F)F)cc2)nc1Cc1ccnc(C(F)(F)F)c1 [Compound 47, 4-[[5-methyl-2-[4-(trifluoromethyl)phenyl]-2H-1,2,3-triazol-4-yl]methyl]-2-(trifluoromethyl)pyridine] | 0 | 40 | 40 | 40 | 100 | 100 | 100 | 100 | 5 | 30 | 85 | 100 | 25 | 35 | 100 | 100 | 95 | 95 | 98 | 100 | Plant response rating: Soybean (soybean (Glycine max); Postemergence, 250 g ai/ha): 75; Plant response rating: Soybean (soybean (Glycine max); Postemergence, 16 g ai/ha): 50; Plant response rating: Soybean (soybean (Glycine max); Postemergence, 31 g ai/ha): 50; Plant response rating: Soybean (soybean (Glycine max); Postemergence, 62 g ai/ha): 60; Plant response rating: Soybean (soybean (Glycine max); Postemergence, 125 g ai/ha): 60; Plant response rating: Soybean (soybean (Glycine max); Preemergence, 250 g ai/ha): 40; Plant response rating: Pigweed, Palmer ([1]; Postemergence, 250 g ai/ha): 100; Plant response rating: Pigweed, Palmer ([1]; Postemergence, 16 g ai/ha): 70; Plant response rating: Pigweed, Palmer ([1]; Postemergence, 31 g ai/ha): 90; Plant response rating: Pigweed, Palmer ([1]; Postemergence, 62 g ai/ha): 95; Plant response rating: Pigweed, Palmer ([1]; Postemergence, 125 g ai/ha): 100; Plant response rating: Pigweed, Palmer ([1]; Preemergence, 250 g ai/ha): 100; Plant response rating: Barnyardgrass ([2]; Postemergence, 250 g ai/ha): 60; Plant response rating: Barnyardgrass ([2]; Postemergence, 16 g ai/ha): 30; Plant response rating: Barnyardgrass ([2]; Postemergence, 31 g ai/ha): 30; Plant response rating: Barnyardgrass ([2]; Postemergence, 62 g ai/ha): 40; Plant response rating: Barnyardgrass ([2]; Postemergence, 125 g ai/ha): 45; Plant response rating: Barnyardgrass ([2]; Preemergence, 250 g ai/ha): 100; Plant response rating: Kochia (kochia (Kochia scoparia); 250 g ai/ha): 100; Plant response rating: Lambsquarters ([3]; 250 g ai/ha): 100
3 | Cc1nn(-c2ccc(F)cc2)nc1Oc1ccnc(C(F)(F)F)c1 [Compound 129, 4-[[2-(4-fluorophenyl)-5-methyl-2H-1,2,3-triazol-4-yl]oxy]-2-(trifluoromethyl)pyridine] | 15 | 15 | 20 | 25 | 80 | 100 | 100 | 100 | 0 | 5 | 10 | 35 | 35 | 50 | 95 | 95 | 0 | 0 | 75 | 98 | Plant response rating: Soybean (soybean (Glycine max); Preemergence, 8 g ai/ha): 0; Plant response rating: Pigweed, Palmer ([1]; Preemergence, 8 g ai/ha): 30; Plant response rating: Barnyardgrass ([2]; Preemergence, 8 g ai/ha): 0; Plant response rating: Kochia (kochia (Kochia scoparia); 8 g ai/ha): 35; Plant response rating: Lambsquarters ([3]; 8 g ai/ha): 0
